# Measured values as given in patent US8748108B2, “Biomarkers for identifying patient classes” (AbbVie Inc., priority 2006, dated 2014).
# “Also recorded” adds a separate entry of the source.
# Columns and labels:
# [1] = phase 2 study, safety / study discontinuation; format: in vivo, human; conditions: phase 2, 39 patients
# Description: Safety assessments included history and physical examinations, vital signs, ECOG performance status, AEs, blood chemistry and complete blood counts with differential. Safety assessments were performed at screening, weekly during cycle 1, and at the start of subsequent cycles. Adverse event severity was graded according to the National Cancer Institute Common Terminology Criteria for Adverse Events (NCI CTCAE), version 3.0 (Common Terminology Criteria for Adverse Events. Version 3.0. Available at NCI website for the cancer therapy evaluation program (CTEP). Relationships of adverse events to navitoclax (definitely, probably, possibly, unlikely, or unrelated) were assessed by the Principal Investigator at each site.
# A total of 39 patients participated in the phase 2 study. The majority of patients were of performance status 1. The median number of prior therapeutic regimens was 2 (range 1-6). All patients were started at the planned dose and schedule, including dose escalation to 325 mg in week 2. The primary reasons for study discontinuation included disease progression (N=26, 67%) and AEs (N=11, 28%). The median number of treatment cycles was 2 (range, 1-11) and the median treatment duration was 1.3 months (range, 0.2-7.3).
# [2] = system: circulating tumor cells (CTC); assay: phase 2 study, circulating tumor cell number (CellSearch); format: in vivo, human
# Description: Blood specimens for analyzing circulating tumor cells (CTC) were collected at screening, on day 14 of cycles 1 and 2, and at final study visit (for US patients only). […] Samples enriched for CTC are removed from the Veridex cartridge after the imaging and enumeration, washed 1× in PBS, pelleted then resuspended in 100 μL PBS and dropped onto a positively charged slide (Biogenex, San Ramon, Calif.) and dried. The slides are then rinsed in H2O prior to imaging using the Carl Zeiss (Germany) or Bioview imaging systems (Tel Aviv, Israel), the CTC are identified and the locations recorded. […] The slides are then returned to the Zeiss or Bioview imaging systems and the previously identified CTC are assessed for DNA copy number.
# To further evaluate this association, we assessed plasma Pro-GRP, and BCL2 copy number by FISH in CTC from patients on this study (n=10).
# [3] = phase I dose-escalation study, safety; format: in vivo, human
# Excerpt: (§1) This example illustrates a phase I dose-escalation study to evaluate the safety, pharmacokinetics, and preliminary efficacy of navitoclax in subjects with relapsed or refractory SCLC and other solid tumors. This phase I study of navitoclax, a novel inhibitor of Bcl-2 family proteins, was designed to evaluate safety, pharmacokinetics, and preliminary efficacy in subjects with small cell lung cancer (SCLC) or other solid tumors.
# (§2) Subjects enrolled to intermittent dosing cohorts received navitoclax on Days 1-14 followed by 7 days off. Subjects on continuous dosing cohorts received a one week lead-in dose of 150 mg followed by continuous daily administration of navitoclax. Blood samples were collected for pharmacokinetic analyses, biomarker analyses, and platelet monitoring.
# Subjects were evaluated with history, physical exam, vital signs, complete blood count, chemistries, urinalysis and ECOG PS weekly through C2 and on D1 of each subsequent cycle. ECG and 2D-ECHO were obtained on C1D-3, C1D14, C3D1, C3D14, and end of study. Platelet counts were obtained on D-3 through 14 of C1, and weekly through each subsequent cycle. Lymphocyte enumeration was performed at screening, C1D14, at the end of C4, and at the end of every 3rd cycle thereafter. Radiographic tumor assessments were performed at baseline, after the 2nd and 4th cycles and after every 3 cycles thereafter. […]
# [4] = system: relapsed or refractory SCLC and other solid tumors; assay: phase I dose-escalation study, tumor response (RECIST); format: in vivo, human
# Excerpt: as §1, §2
# Subjects included histologically documented SCLC or other non-hematologic malignancies, age ≧18, Eastern Cooperative Oncology Group performance status (ECOG PS) of ≦2, measurable disease by Response Evaluation Criteria in Solid Tumors (RECIST 1.0), and had received at least one prior chemotherapy treatment with documented progression. Subjects with brain metastases were included if they had surgery and/or radiation therapy followed by 21 days of stable neurologic function and stable disease by imaging prior to the first dose of study drug. Additional inclusion criteria included adequate bone marrow, renal and hepatic function per local laboratory reference range, non-pregnant status, and a life expectancy of ≧90 days.
# Subjects were evaluated with history, physical exam, vital signs, complete blood count, chemistries, urinalysis and ECOG PS weekly through C2 and on D1 of each subsequent cycle. ECG and 2D-ECHO were obtained on C1D-3, C1D14, C3D1, C3D14, and end of study. Platelet counts were obtained on D-3 through 14 of C1, and weekly through each subsequent cycle. Lymphocyte enumeration was performed at screening, C1D14, at the end of C4, and at the end of every 3rd cycle thereafter. Radiographic tumor assessments were performed at baseline, after the 2nd and 4th cycles and after every 3 cycles thereafter.
# [5] = phase I study, pharmacokinetics; format: in vivo; conditions: human, plasma; phase 1, patients, oral
# [6] = system: M30; assay: phase I study, serum M30 (caspase-cleaved CK18); format: in vivo, human
# Description: (§3) Blood samples for circulating tumor cells (CTCs) were collected at screening, C1D14, C2D14, and at the end of study treatment. Samples for the plasma marker Pro-GRP were collected at screening, C1D14, C2D14, and at the end of study. Samples for serum marker M30 were collected at screening, pre-dose, 6 and 24 hours post-dose on C1D-3 (for 14/21 day dosing) or lead-in day 2 for 21/21 day dosing). Samples were also collected on C1D14; pre-dose and 6 hours post-dose on C2D1; C2D14; end of cycle 4; and every 3rd cycle thereafter and at the final visit for all subjects.
# (§4) The CTC were analyzed via the CellSearch system (Veridex, Raritan, N.J.). […] Pro-GRP was measured using ARCHITECT ELISA kits (Abbott Diagnostics, Abbott Park, Ill.). Serum samples were analyzed for M30 and M65 (Peviva) using previously described assays validated to good clinical laboratory practice (Cummings J, Ward T H, LaCasse E, et al: Validation of pharmacodynamic assays to evaluate the clinical efficacy of an antisense compound (AEG 35156) targeted to the X-linked inhibitor of apoptosis protein XIAP. Br J Cancer 92:532-8, 2005; and Cummings J, Ranson M, Lacasse E, et al: Method validation and preliminary qualification of pharmacodynamic biomarkers employed to evaluate the clinical efficacy of an antisense compound (AEG35156) targeted to the X-linked inhibitor of apoptosis protein XIAP. […]
# [7] = system: pro-GRP; assay: phase I study, plasma pro-GRP (ARCHITECT ELISA); format: in vivo, human; conditions: with increasing dose
# Description: as §3, §4
# [8] = system: relapsed or refractory SCLC; assay: phase 2 study, efficacy (RECIST, PFS, OS); format: in vivo, human
# Excerpt: Eligible candidates for the phase 2 portion of this study (NCT00445198) were adults with histologically or cytologically confirmed SCLC, extensive stage, with progressive disease after at least one prior chemotherapy regimen (any number of prior therapies were allowed). […] Patients were excluded if they had underlying or predisposing condition of bleeding (history of non-chemotherapy induced thrombocytopenia with bleeding within 1 year, active peptic ulcer or hemorrhagic esophagitis/gastritis, active immune thrombocytopenic purpura, etc.). This study was conducted according to the Declaration of Helsinki and with approval from Institutional Review Boards of all participating study sites. All participants provided written informed consent before participating. The phase 2 component of this clinical trial was an open-label, single arm study of patients with recurrent and progressive SCLC after at least one prior therapy. Based on the dose and schedule determined in phase 1 (Example 3), patients were treated with navitoclax 150 mg daily for 1 week, and 325 mg daily thereafter. Cycle duration was defined as 21 days. Subjects could remain on therapy indefinitely, until disease progression or intolerable toxicity. […] New guidelines to evaluate the response to treatment in solid tumors. European Organization for Research and Treatment of Cancer, National Cancer Institute of the United States, National Cancer Institute of Canada. […] Additional efficacy variables included PFS and OS. All subjects enrolled were included in the analyses. Descriptive statistics were used to summarize demographic variables. Progression free survival and overall survival were computed using Kaplan-Meier methodology and 95% confidence intervals were provided. Progression free survival (PFS) was defined as the number of days from the date the subject started the study drug to the date the subject experienced an event of disease progression, or if progression was not experienced, then the date of death if the death occurred within 42 days (length of time between tumor assessments). Overall survival (OS) was defined as the number of days from the date the subject started the study drug to the date of the subject's death. […] Correlations between median BCL2 copy number and pro-GRP were performed by the Pearson correlation; M30 and CTC change from baseline comparisons among Pro-GRP groups were performed by one-way ANOVA using the JMP 8.0 statistical software. Optimized thresholds for the tumor markers were obtained using BATTing (Bootstrapping and Aggregating Thresholds from Trees) method (See, […]., Bagging Predictors. Machine Learning 26:123-140, 1996, fully incorporated herein by reference). Briefly, BATTing uses a tree-based model for threshold estimation. However, a single tree may be unstable and not robust enough against small perturbations in the distribution of the data. In addition, single tree-based models are known be prone to overfitting (that is, it is over-specified for training data) and have poor prediction power. Those issues are addressed in BATTing by aggregating the thresholds from multiple trees to get a more robust estimate. Each tree is built using a bootstrap random sample drawn from the original population and provides its own cutoff. The final estimate of the threshold is calculated as the median from the distribution of cutoffs generated from the multiple trees. This procedure was implemented using the R statistical software (available online from the R project). Several exploratory correlative biomarkers were included in this study, including both CTC enumeration and plasma protein markers associated with small cell lung cancer. The biomarker analysis included all phase II patients and, to increase the sample size, patients with SCLC and those dosed with >325 mg navitoclax on the phase I portion of this study were also included in the analysis. […]
# [9] = system: M30; assay: phase 2 study, M30 ELISA assay in patient serum; format: in vivo, human
# Description: Serum and plasma samples collected at the same intervals were stored at −70° C. or colder until analyzed for quantitative assessment of tumor markers. CYFRA 21-1 and Pro-GRP were measured using the automated [sequence] ELISA kits (Abbott Diagnostics, Abbott Park, Ill.) and NSE was measured in plasma using automated electrochemoluminescent assays on Elecsys 2010 (Roche Diagnostics, Germany). Serum samples were analyzed for M30 and M65 (Peviva AB, Sweden) using previously described assays validated to good clinical laboratory practice (see, Cummings J., et al., Br J Cancer 92:532-8, 2005; and Cummings J., et al., Br J Cancer 95:42-8, 2006).
# This assay measures the release of caspase-cleaved cytokeratin 18 following apoptotic cell death.
# [10] = system: recurrent SCLC; conditions: recurrent SCLC patients; cited from earlier work
# [11] = 47 enrolled, 38 evaluable for response
# [12] = baseline CYFRA 21.1 above 2.3 ng/ml
# [13] = baseline CYFRA 21.1 below 2.3 ng/ml
smiles,measurement,setting,value
"CC1(C)CCC(c2ccc(Cl)cc2)=C(CN2CCN(c3ccc(C(=O)NS(=O)(=O)c4ccc(NC(CCN5CCOCC5)CSc5ccccc5)c(S(=O)(=O)C(F)(F)F)c4)cc3)CC2)C1 (stereo in doubt) [navitoclax, N-(4-(4-(2-(4-chlorophenyl)-5,5-dimethyl-1-cyclohex-1-en-1-yl)methyl)pip-erazin-1-yl)benzoyl)-4-(((1R)-3-(morpholin-4-yl)-1-((phenylsulfanyl)methyl)propyl)amino)-3-((trifluoromethyl)sulfonyl)benzenesulfonamide]",study discontinuation due to AEs,[1],28%
same,median CTC number,"[2]; better prognosis patients, high pro-GRP group, baseline to day 14",91 % of baseline
same,median CTC number,"[2]; better prognosis patients, low pro-GRP group, baseline to day 14",349 % of baseline
same,median CTC number,"[2]; total population, high pro-GRP group n=12",186 % of baseline
same,median CTC number,"[2]; total population, low pro-GRP group n=8",518 % of baseline
same,recommended phase 2 dose,[3]; from exploration of doses and schedules in phase I,325 mg daily
same,toxicities / tolerability,"[3]; phase I, intermittent and continuous dosing cohorts","dose and schedule-dependent thrombocytopenia, diarrhea, nausea, and fatigue; also recorded: safe, well-tolerated, with dose-dependent thrombocytopenia as the major side effect; also recorded: rapid and dose-dependent thrombocytopenia"
same,subjects with partial response,[4]; [11],One
same,subjects with stable disease,[4]; [11],7
same,duration of partial response,"[4]; one subject, remains on study",over 26 months
same,half-life,[5],~15 h
same,time of rise in M30 following the first dose,[6]; in most instances,≤ 6 h
same,circulating M30,"[6]; serum, cycle 1, post first exposure",dose-dependent transient increase in circulating M30
same,Pro-GRP levels overall,[7],declined or stabilized with increasing navitoclax dose
same,Median OS Above threshold,[8]; baseline CTC above 12/7.5 ml,67 (17) D
same,Median PFS Above threshold,[8]; baseline CTC above 12/7.5 ml,46 (15) D
same,Median PFS Below threshold,[8]; baseline CTC below 12/7.5 ml,63 (14) D
same,Median OS Above threshold,[8]; [12],67 (19) D
same,Median PFS Above threshold,[8]; [12],44 (19) D
same,Median OS Below threshold,[8]; [13],242 (20) D
same,Median PFS Below threshold,[8]; [13],53 (20) D
same,Median OS Above threshold,[8]; baseline NSE above 15 ng/ml,72 (24) D
same,Median PFS Above threshold,[8]; baseline NSE above 15 ng/ml,44 (24) D
same,Median OS Below threshold,[8]; baseline NSE below 15 ng/ml,242 (15) D
same,Median PFS Below threshold,[8]; baseline NSE below 15 ng/ml,55 (15) D
same,median OS,"[8]; patients above thresholds for both NSE and CYFRA (poor prognosis), n=15",61 days
same,median PFS,"[8]; patients above thresholds for both NSE and CYFRA (poor prognosis), n=16",41 days
same,median OS,"[8]; patients not above both NSE and CYFRA thresholds, n=18",242 days
same,median PFS,"[8]; patients not above both NSE and CYFRA thresholds, n=23",55 days
same,Median progression-free survival (PFS),"[8]; phase 2, 39 patients",1.5 months
same,best response of disease progression (PD),"[8]; phase 2, 39 patients",41%
same,confirmed partial response (PR),"[8]; phase 2, 39 patients",2.6%
same,inevaluable for response,"[8]; phase 2, 39 patients",33.3%
same,median overall survival (OS),"[8]; phase 2, 39 patients",3.2 months
same,stable disease (SD) as best response,"[8]; phase 2, 39 patients",23.1%
same,"Best response PD, N (%)","[8]; phase 2, N = 39",16 (41.0) N (%)
same,"Best response PR, N (%)","[8]; phase 2, N = 39",1 (2.6) N (%)
same,"Best response SD, N (%)","[8]; phase 2, N = 39",9 (23.1) N (%)
same,"Median OS, mo (95% CI)","[8]; phase 2, N = 39","3.2 (2.3, 8.1) mo"
same,"ORR, % (95% CI)","[8]; phase 2, N = 39","2.6 (0.1, 13.5) %"
same,"Median PFS, mo (95% CI)","[8]; phase 2, N = 39, 150 mg daily 1 week then 325 mg daily","1.5 (1.4, 1.7) mo"
same,"Best response inevaluable, N (%)","[8]; phase 2, N = 39, baseline tumor data only",13 (33.3) N (%)
same,M30 concentrations,"[9]; better prognosis patients, high Pro-GRP group (above 600 pg/mL)",205%
same,M30 concentrations,"[9]; better prognosis patients, low Pro-GRP group (below 600 pg/mL)",116%
same,M30 concentrations,"[9]; total population, high Pro-GRP group n=19",212%
same,M30 concentrations,"[9]; total population, low Pro-GRP n=13",109%
CC[C@@]1(O)C(=O)OCc2c1cc1n(c2=O)Cc2cc3c(CN(C)C)c(O)ccc3nc2-1 [topotecan],response rate,[10],2-6%
